Measurements: patent US20210000912A1, “Compositions And Methods For Prophylaxis Or Treatment Of Pain” (Interk Peptide Therapeutics Limited, priority 2017, published 2021)

Molecular target: T1, c-Src (h) (Homo sapiens, UniProt P12931)
T1 construct: purchased Eurofins Pharma Discovery Services UK Ltd (contract assay service)
Assay: c-Src kinase activity assay, cell free
Assay type: biochemical
Description: The capacity of test peptides to inhibit the activity of the kinases PKG1α, PKG1β, and Src family kinases in a cell free assay was assessed. The test peptides were amidated at their C-terminal end (indicated by “—NH2”) unless otherwise noted. Kinase activity assays were conducted by Eurofins Pharma Discovery Services UK Ltd (Dundee Technology Park, Dundee, United Kingdom) and Reaction Biology Corp. (Malvern, Pa., USA).
All test peptides are prepared to 50× final assay concentration in 100% DMSO. This working stock of the test compound is added to assay wells as the first component in the reaction, followed by the remaining components of the respective assay protocols described below. There is no pre-incubation step between the test peptide and the kinase prior to initiation of the reaction. The kinases are diluted in buffer (20 mM MOPS, 1 mM EDTA, 0.01% Brij-35, 5% Glycerol, 0.1% β-mercaptoethanol, 1 mg/mL BSA) prior to addition to the reaction mix.
Positive control wells contain all components of the reaction, except the test peptide of interest. However, DMSO (at a final concentration of 2%) is included in positive control wells to control for solvent effects. Negative control wells contain all components of the reaction, with a reference inhibitor (staurosporine) replacing the test peptide. This abolishes kinase activity and establishes a base-line (0% kinase activity). Kinase assay protocols (Eurofins Pharma Discovery Services UK Ltd, Dundee Technology Park, Dundee, United Kingdom) are described below. Of the Src family kinases, only the assay protocol for c-Src is shown.
c-Src (h) is incubated with 8 mM MOPS pH 7.0, 0.2 mM EDTA, 250 μM KVEKIGEGTYGVVYK (Cdc2 peptide), 10 mM MgAcetate and [γ-^33P]-ATP (specific activity approx. 500 cpm/pmol, concentration as required). The reaction is initiated by the addition of the MgATP mix. After incubation for 40 minutes at room temperature, the reaction is stopped by the addition of 3% phosphoric acid solution. A 10 μL aliquot of the reaction is then spotted onto a P30 filtermat and washed three times for 5 minutes in 75 mM phosphoric acid and once in methanol prior to drying and scintillation counting.

T1 sequence (P12931 whole entry): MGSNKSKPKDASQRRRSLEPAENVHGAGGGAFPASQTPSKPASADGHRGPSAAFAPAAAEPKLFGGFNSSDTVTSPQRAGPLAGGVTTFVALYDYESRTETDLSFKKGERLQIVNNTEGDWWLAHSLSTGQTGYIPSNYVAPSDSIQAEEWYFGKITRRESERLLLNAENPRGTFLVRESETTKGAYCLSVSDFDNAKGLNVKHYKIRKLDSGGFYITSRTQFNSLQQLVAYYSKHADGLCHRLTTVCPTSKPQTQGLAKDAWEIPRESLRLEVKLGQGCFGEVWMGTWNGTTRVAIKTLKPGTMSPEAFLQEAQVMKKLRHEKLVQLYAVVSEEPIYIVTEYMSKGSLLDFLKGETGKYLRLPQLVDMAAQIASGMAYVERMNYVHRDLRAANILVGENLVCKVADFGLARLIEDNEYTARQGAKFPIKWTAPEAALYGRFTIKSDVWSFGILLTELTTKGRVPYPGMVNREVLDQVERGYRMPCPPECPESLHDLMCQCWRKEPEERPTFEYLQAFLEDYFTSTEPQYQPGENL

N=C(N)NCCC[C@H](NC(=O)[C@H](CCCNC(=N)N)NC(=O)[C@H](CCCNC(=N)N)NC(=O)[C@H](CCCNC(=N)N)NC(=O)[C@H](CCCNC(=N)N)NC(=O)[C@H](CCCNC(=N)N)NC(=O)[C@H](CCCNC(=N)N)NC(=O)[C@H](CCCNC(=N)N)NC(=O)[C@H](CCCNC(=N)N)NC(=O)[C@H](CCCNC(=N)N)NC(=O)[C@H](CCCNC(=N)N)NC(=O)[C@H](CCCNC(=N)N)NC(=O)[C@H](CCCNC(=N)N)NC(=O)[C@@H](N)CCCNC(=N)N)C(N)=O [IK01400, RRRRRRRRRRRRRR-NH2]
IC50: 5.5 nM
